The source made the active and inactive calls. No cut-off for these calls is given here.
What was measured:
U-87 MG [1] = test: Antiproliferation activity against human U-87 MG cells assessed as decrease in cell growth at 30 uM after 3 days by MTT assay; type: functional, U-87MG ATCC; set-up: scale not given: the % may be the effect or the level left; conditions: time 3 day
A 172 [2] = test: Induction of cell cycle arrest in human A 172 cells assessed as accumulation at G2/M phase by propidium iodide staining based flow cytometric analysis; type: functional; conditions: dose microM <=10
A 172 [3] = test: Induction of apoptosis in human A 172 cells assessed as upregulation of activated caspase 3 protein at 3 uM after 24 hrs by western blot analysis; type: functional, cell-based
U-87 MG [4] = test: Antiproliferation activity against human U-87 MG cells assessed as growth inhibition measured after 1 hr by MTT assay; type: functional, cell-based, U-87MG ATCC
U-87 MG [5] = test: Antiproliferation activity against human U-87 MG cells assessed as decrease in cell growth at 30 uM incubated for 2 days by MTT assay; type: functional, cell-based; conditions: U-87MG ATCC, time 2.0 day
A 172 [6] = test: Induction of apoptosis in human A 172 cells assessed as upregulation of cleaved PARP at 3 uM after 24 hrs by western blot analysis; type: functional, cell-based
A 172 [7] = test: Induction of cell cycle arrest in human A 172 cells assessed as accumulation at G0/G1 phase by propidium iodide staining based flow cytometric analysis; type: functional; conditions: dose microM <=10
A 172 [8] = test: Induction of cell cycle arrest in human A 172 cells assessed as accumulation at S phase upto 10 uM by propidium iodide staining based flow cytometric analysis; type: functional; conditions: dose microM <=10
Histone deacetylase 1 = Histone deacetylase 1 (Homo sapiens, UniProt Q13547); test: Inhibition of human recombinant HDAC1 expressed in baculovirus infected insect cells using [RHKK(Ac)] fluorogenic substrate
U-87 MG [9] = test: Antiproliferation activity against human U-87 MG cells assessed as growth inhibition at 10 uM after 3 days by MTT assay; type: functional, U-87MG ATCC; conditions: 72 h, time 3 day
Histone deacetylase 8 = target: T1, Histone deacetylase 8 (Homo sapiens, UniProt Q9BY41); test: Inhibition of human recombinant HDAC8 using [RHKK(Ac)] fluorogenic substrate
T1 sequence (Q9BY41 whole entry): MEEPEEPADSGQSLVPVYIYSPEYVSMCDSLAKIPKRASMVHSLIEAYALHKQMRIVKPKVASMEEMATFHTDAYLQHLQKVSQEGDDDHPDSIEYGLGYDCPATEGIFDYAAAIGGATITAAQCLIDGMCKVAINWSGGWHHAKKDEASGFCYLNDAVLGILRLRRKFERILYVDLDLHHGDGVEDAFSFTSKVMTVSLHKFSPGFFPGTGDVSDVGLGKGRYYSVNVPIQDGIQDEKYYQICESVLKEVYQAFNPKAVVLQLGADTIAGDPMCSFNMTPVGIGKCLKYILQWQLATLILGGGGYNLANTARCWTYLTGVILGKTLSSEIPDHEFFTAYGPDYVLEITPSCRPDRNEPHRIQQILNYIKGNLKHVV

[10] = target: T2, Protein deacetylase HDAC6 (Homo sapiens, UniProt Q9UBN7); test: Inhibition of human recombinant HDAC6 expressed in baculovirus infected insect cells using [RHKK(Ac)] fluorogenic substrate
T2 sequence (Q9UBN7 whole entry): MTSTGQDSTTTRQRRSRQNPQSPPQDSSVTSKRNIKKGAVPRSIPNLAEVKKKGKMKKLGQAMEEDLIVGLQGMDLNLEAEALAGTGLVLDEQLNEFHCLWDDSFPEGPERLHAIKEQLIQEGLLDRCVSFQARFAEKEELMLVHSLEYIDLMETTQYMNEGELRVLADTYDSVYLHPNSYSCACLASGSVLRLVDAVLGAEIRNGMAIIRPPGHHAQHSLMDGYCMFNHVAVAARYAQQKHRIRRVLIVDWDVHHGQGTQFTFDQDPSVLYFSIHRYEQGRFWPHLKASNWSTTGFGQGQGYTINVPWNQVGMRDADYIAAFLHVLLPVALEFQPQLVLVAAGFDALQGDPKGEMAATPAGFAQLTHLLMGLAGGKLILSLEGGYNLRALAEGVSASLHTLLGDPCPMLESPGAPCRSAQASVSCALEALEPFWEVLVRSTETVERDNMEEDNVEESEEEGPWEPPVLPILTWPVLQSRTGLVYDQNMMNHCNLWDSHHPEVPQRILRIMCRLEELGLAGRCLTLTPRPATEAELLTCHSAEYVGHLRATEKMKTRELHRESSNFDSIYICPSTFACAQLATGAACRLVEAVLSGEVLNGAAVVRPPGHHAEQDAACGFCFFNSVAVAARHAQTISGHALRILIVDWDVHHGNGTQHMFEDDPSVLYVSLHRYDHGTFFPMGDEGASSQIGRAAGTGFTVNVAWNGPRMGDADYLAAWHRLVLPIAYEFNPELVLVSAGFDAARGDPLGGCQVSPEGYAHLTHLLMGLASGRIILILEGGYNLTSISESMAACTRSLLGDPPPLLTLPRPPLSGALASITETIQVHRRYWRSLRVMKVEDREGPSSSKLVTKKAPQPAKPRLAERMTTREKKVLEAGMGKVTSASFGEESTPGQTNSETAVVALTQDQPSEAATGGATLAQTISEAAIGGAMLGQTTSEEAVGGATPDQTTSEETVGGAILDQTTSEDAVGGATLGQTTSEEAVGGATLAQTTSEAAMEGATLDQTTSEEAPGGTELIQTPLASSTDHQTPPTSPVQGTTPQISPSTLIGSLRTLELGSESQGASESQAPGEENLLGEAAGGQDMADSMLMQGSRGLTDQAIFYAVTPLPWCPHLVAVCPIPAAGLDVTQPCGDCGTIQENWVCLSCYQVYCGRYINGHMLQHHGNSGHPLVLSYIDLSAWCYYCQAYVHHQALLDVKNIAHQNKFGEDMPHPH

Histone deacetylase 3 = Histone deacetylase 3 (Homo sapiens, UniProt O15379); test: Inhibition of human recombinant HDAC3 using [RHKK(Ac)] fluorogenic substrate
A 172 [11] = test: Induction of cell cycle arrest in human A 172 cells assessed as sub-G1 population upto 10 uM after 2 days by flow cytometry/PI staining assay; type: functional, cell-based; conditions: dose microM <=10, time 2.0 day
U-87 MG [12] = test: Antiproliferation activity against TMZ resistant human U-87 MG R-50 cells assessed as growth inhibition at 3 uM by MTT assay; type: functional, cell-based; conditions: U-87MG ATCC
Glioblastoma cell line = test: Antiproliferation activity against TMZ resistant human glioblastoma cell P1S assessed as growth inhibition at 3 uM by MTT assay; type: functional
[13] = Permeability of compound by PAMPA-BBB assay

Sequence of Histone deacetylase 1 (Q13547 whole entry): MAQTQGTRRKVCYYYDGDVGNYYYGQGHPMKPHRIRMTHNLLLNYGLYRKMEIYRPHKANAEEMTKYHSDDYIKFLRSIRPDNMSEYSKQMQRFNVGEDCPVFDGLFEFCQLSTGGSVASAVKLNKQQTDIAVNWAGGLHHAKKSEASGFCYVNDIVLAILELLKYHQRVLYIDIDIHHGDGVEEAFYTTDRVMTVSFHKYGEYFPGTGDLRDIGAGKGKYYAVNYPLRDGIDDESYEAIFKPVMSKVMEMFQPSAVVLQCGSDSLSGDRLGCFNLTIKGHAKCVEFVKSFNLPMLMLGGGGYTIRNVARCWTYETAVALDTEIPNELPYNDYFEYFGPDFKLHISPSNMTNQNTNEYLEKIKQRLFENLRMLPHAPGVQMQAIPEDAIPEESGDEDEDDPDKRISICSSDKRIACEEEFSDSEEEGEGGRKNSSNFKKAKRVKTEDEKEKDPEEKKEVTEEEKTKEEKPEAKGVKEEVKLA
Sequence of Histone deacetylase 3 (O15379 whole entry): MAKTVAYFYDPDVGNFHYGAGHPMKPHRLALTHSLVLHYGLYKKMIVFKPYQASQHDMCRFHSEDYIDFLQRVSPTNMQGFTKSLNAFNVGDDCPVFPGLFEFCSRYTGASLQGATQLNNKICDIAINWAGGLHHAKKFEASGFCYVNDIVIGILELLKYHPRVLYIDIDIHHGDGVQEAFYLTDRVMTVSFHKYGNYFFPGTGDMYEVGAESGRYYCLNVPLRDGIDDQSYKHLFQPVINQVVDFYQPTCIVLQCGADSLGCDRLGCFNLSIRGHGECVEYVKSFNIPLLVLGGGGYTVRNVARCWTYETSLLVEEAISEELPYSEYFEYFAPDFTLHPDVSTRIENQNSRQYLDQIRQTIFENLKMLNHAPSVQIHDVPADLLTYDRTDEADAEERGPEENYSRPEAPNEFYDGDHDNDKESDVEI

CC12CC3CC(C)(C1)CC(N)(C3)C2.Cl [MEMANTINE HYDROCHLORIDE]
Activity (U-87 MG [1]): 50% | Activity (A 172 [2]): 28% | Activity (A 172 [3]): inactive | IC50 (U-87 MG [4]): 23600 nM | Activity (U-87 MG [5]): inactive | Activity (A 172 [6]): inactive | Activity (A 172 [7]): 57% | Activity (A 172 [8]): 10%

CC12CC3CC(C)(C1)CC(NCc1ccc(NCc4ccc(C(=O)NO)cc4)cc1)(C3)C2
IC50 (Histone deacetylase 1): 11000 nM | inhibition at 10 µM (U-87 MG [9]): 90% | IC50 (U-87 MG [4]): 2400 nM | IC50 (Histone deacetylase 8): 15300 nM | IC50 [10]: 76.8 nM

CC12CC3CC(C)(C1)CC(NC(=O)CCCCCCCC(=O)NO)(C3)C2
IC50 (Histone deacetylase 1): 2800 nM | IC50 (U-87 MG [4]): 33600 nM | IC50 (Histone deacetylase 3): 4130 nM | IC50 (Histone deacetylase 8): 1070 nM | IC50 [10]: 227 nM

CC12CC3CC(C)(C1)CC(NS(=O)(=O)c1ccc(/C=C/C(=O)NO)cc1)(C3)C2
IC50 (Histone deacetylase 1): 950 nM | Activity (A 172 [11]): Active | Activity (A 172 [2]): Dose-Dependent Effect | Activity (A 172 [3]): Active | inhibition at 10 µM (U-87 MG [9]): 90% | IC50 (U-87 MG [4]): 1990 nM | Activity (A 172 [6]): Active | IC50 (Histone deacetylase 3): 1030 nM | Activity (A 172 [7]): Dose-Dependent Effect | IC50 (Histone deacetylase 8): 7380 nM | IC50 [10]: 103 nM

CC12CC3CC(C)(C1)CC(NCc1ccc(C(=O)NO)cc1)(C3)C2
IC50 (U-87 MG [4]): 45200 nM | IC50 (Histone deacetylase 8): 8630 nM | IC50 [10]: 3200 nM

CC12CC3CC(C)(C1)CC(NC(=O)CCCCCCC(=O)NO)(C3)C2
IC50 (Histone deacetylase 1): 4430 nM | IC50 (U-87 MG [4]): 18500 nM | IC50 (Histone deacetylase 3): 12600 nM | IC50 (Histone deacetylase 8): 831 nM | IC50 [10]: 360 nM

CC12CC3CC(C)(C1)CC(NS(=O)(=O)c1cccc(/C=C/C(=O)NO)c1)(C3)C2
IC50 (Histone deacetylase 1): 1740 nM | inhibition at 10 µM (U-87 MG [9]): 90% | IC50 (U-87 MG [4]): 2210 nM | IC50 (Histone deacetylase 3): 2890 nM | IC50 (Histone deacetylase 8): 562 nM | IC50 [10]: 93.7 nM

CC12CC3CC(C)(C1)CC(NC(=O)CCCCCCCCC(=O)NO)(C3)C2
IC50 (Histone deacetylase 1): 5240 nM | IC50 (U-87 MG [4]): 9460 nM | IC50 (Histone deacetylase 3): 3450 nM | IC50 (Histone deacetylase 8): 707 nM | IC50 [10]: 270 nM

CC12CC3CC(C)(C1)CC(NC(=O)CCCCCC(=O)NO)(C3)C2
IC50 (Histone deacetylase 1): 16100 nM | IC50 (U-87 MG [4]): 16100 nM | IC50 (Histone deacetylase 8): 4140 nM | IC50 [10]: 206 nM

CC12CC3CC(C)(C1)CC(NCc1ccc(/C=C/C(=O)NO)cc1)(C3)C2
Activity (A 172 [11]): Active | Activity (A 172 [2]): Dose-Dependent Effect | Activity (A 172 [3]): Active | inhibition at 10 µM (U-87 MG [9]): 90% | IC50 (U-87 MG [4]): 1870 nM | Activity (A 172 [6]): Active | IC50 (Histone deacetylase 3): 2810 nM | Activity (A 172 [7]): Dose-Dependent Effect | IC50 (Histone deacetylase 8): 1030 nM | IC50 [10]: 77 nM | Activity (U-87 MG [12]): inactive | Activity (Glioblastoma cell line): inactive

CC12CC3CC(C)(C1)CC(NCc1cccc(NC(=O)CCCCCCC(=O)NO)c1)(C3)C2
IC50 (Histone deacetylase 1): 679 nM | inhibition at 10 µM (U-87 MG [9]): 90% | IC50 (U-87 MG [4]): 1400 nM | IC50 (Histone deacetylase 3): 652 nM | IC50 (Histone deacetylase 8): 703 nM | IC50 [10]: 60.8 nM

O=C(CCCCCCC(=O)Nc1ccccc1)NO [VORINOSTAT]
permeability [13]: 1 10^-5 cm/s

— ChEMBL document CHEMBL4814005, “Pragmatic recruitment of memantine as the capping group for the design of HDAC inhibitors: A preliminary attempt to unravel the enigma of glioblastoma” (Eur J Med Chem, 2021)
